What was measured:
[1] = tested on: rat model of transient middle cerebral artery occlusion; assay: Rat t-MCAO: brain infarct size (TTC staining, ImageJ); format: in vivo; conditions: for Relative brain infarct volume on Day 7 (%) (mean + SD) / percentage change of relative brain infarct volume on Day 7 vs the control group: repeated administration (7 days); for efficacy when administered as monotherapies: low doses, monotherapy
Description: (§1) Test compounds were administrated intravenously 20 minutes before reperfusion and then twice a day thereafter for six consecutive days. The modified neurological severity score (NSS) was graded on a scale of 0 to 18 (in which normal score was 0 and maximal deficit score was represented by 18), on Study Day 2 (one day following surgery) and on Study Day 7 (7 days post-surgery and before study termination); it included a set of clinical-neurological tests (composite of motor, sensory, reflex and balance tests). At study termination brains were harvested, sliced into five 2 mm thick coronal sections and stained with triphenyl tetrazolium chloride (TTC) for infarct size measurement using ImageJ program. Morbidity, mortality, body weight and clinical observation were also recorded. […] The statistical significance (P) of treated groups vs the untreated control group was determined using two-way ANOVA followed by Bonferroni post hoc test, using GraphPad Prism 5 program.
(§2) Due to mortality in some of the groups, the numbers within the groups were adjusted to have sufficient animals in all the groups.
(§3) In study Part II, a total of 86 SD male rats (270-320 gr upon arrival) were divided into 9 groups (7 or 15 rats per treated group and 6 rats in the control group). Due to mortality in some of the groups, the numbers within the groups were adjusted to have sufficient animals in all the groups.

[2] = tested on: rat thromboembolic model of stroke; conditions: continuous infusion (75 ng/h), at 7 days post middle cerebral artery occlusion; cited from earlier work
[3] = tested on: rat model of transient middle cerebral artery occlusion; assay: Rat t-MCAO: modified neurological severity score (NSS), scale 0 to 18; format: in vivo; conditions: for modified neurological severity score (NSS) compared with the control group on Day 2 / modified neurological severity score (NSS) compared with the control group on Day 7: monotherapy; for Modified NSS on Day 2 (mean + SD) / Modified NSS on Day 7 (mean + SD) / percentage change of Modified NSS on Day 2 vs the control group / percentage change of Modified NSS on Day 7 vs the control group: repeated administration (7 days)
Description: as §1, §2, §3

[4] = tested on: rat model of stroke (middle cerebral artery occlusion); conditions: 10 μg/kg IP loading dose plus 200 ng/h sc infusion beginning 4.5 h or 10 h after onset of ischemia; cited from earlier work
[5] = Treatment I: glibenclamide 1 μg/Kg iv
[6] = Treatment J: glibenclamide 3 μg/Kg iv
[7] = Treatment K: glibenclamide 10 μg/Kg iv
[8] = Treatment L: glibenclamide 30 μg/Kg iv
[9] = lowest doses (treatments A, E and I)
[10] = Treatment F: potassium canrenoate 1 mg/Kg iv
[11] = Treatment G: potassium canrenoate 3 mg/Kg iv
[12] = Treatment H: potassium canrenoate 10 mg/Kg iv

**Q.** Which “Relative brain infarct volume on Day 7 (%) (mean + SD)” value [1, 5] does the source give for `COc1ccc(Cl)cc1C(=O)NCCc1ccc(S(=O)(=O)NC(=O)NC2CCCCC2)cc1` [GLIBENCLAMIDE, 5-chloro-N-[2-[4-(cyclohexylcarbamoyl-sulfamoyl)phenyl]ethyl]-2-methoxybenzamide] here?
**A.** 33 ± 10%

**Q.** What about the “percentage change of relative brain infarct volume on Day 7 vs the control group” value [1, 5] of the same compound?
**A.** [−21%; NS]

**Q.** What about the “Relative brain infarct volume on Day 7 (%) (mean + SD)” value [1, 6] of the same compound?
**A.** 19 ± 9%

**Q.** And the “percentage change of relative brain infarct volume on Day 7 vs the control group” value [1, 6]?
**A.** [−55%; ***]

**Q.** What about the “Relative brain infarct volume on Day 7 (%) (mean + SD)” value [1, 7] of the same compound?
**A.** 16 ± 9%

**Q.** And the “percentage change of relative brain infarct volume on Day 7 vs the control group” value [1, 7]?
**A.** [−62%; ***]

**Q.** And the “Relative brain infarct volume on Day 7 (%) (mean + SD)” value [1, 8]?
**A.** 17 ± 8%

**Q.** What about the “percentage change of relative brain infarct volume on Day 7 vs the control group” value [1, 8] of the same compound?
**A.** [−60%; ***]

**Q.** What about the “efficacy when administered as monotherapies” value [1] of the same compound?
**A.** ineffective

**Q.** What about the “reduction of cerebral edema, infarct volume and mortality” value [2] of the same compound?
**A.** 50%

**Q.** What about the “modified neurological severity score (NSS) compared with the control group on Day 2” value ([3]; 3 μg/kg dose (treatment J)) of the same compound?
**A.** did not show a statistically significant decrease

**Q.** And the “Modified NSS on Day 2 (mean + SD)” value [3, 5]?
**A.** 14 ± 1

**Q.** What about the “Modified NSS on Day 7 (mean + SD)” value [3, 5] of the same compound?
**A.** 12 ± 1

**Q.** And the “percentage change of Modified NSS on Day 2 vs the control group” value [3, 5]?
**A.** [0%; NS]

**Q.** And the “percentage change of Modified NSS on Day 7 vs the control group” value [3, 5]?
**A.** [−8%; NS]

**Q.** And the “Modified NSS on Day 2 (mean + SD)” value [3, 6]?
**A.** 13 ± 3

**Q.** And the “Modified NSS on Day 7 (mean + SD)” value [3, 6]?
**A.** 10 ± 1

**Q.** And the “percentage change of Modified NSS on Day 2 vs the control group” value [3, 6]?
**A.** [−7%; NS]

**Q.** And the “percentage change of Modified NSS on Day 7 vs the control group” value [3, 6]?
**A.** [−23%; *]

**Q.** What about the “Modified NSS on Day 2 (mean + SD)” value [3, 7] of the same compound?
**A.** 11 ± 3

**Q.** And the “Modified NSS on Day 7 (mean + SD)” value [3, 7]?
**A.** 8 ± 2

**Q.** What about the “percentage change of Modified NSS on Day 2 vs the control group” value [3, 7] of the same compound?
**A.** [−21%; **]

**Q.** And the “percentage change of Modified NSS on Day 7 vs the control group” value [3, 7]?
**A.** [−38%; ***]

**Q.** What about the “Modified NSS on Day 2 (mean + SD)” value [3, 8] of the same compound?
**A.** 11 ± 3

**Q.** What about the “Modified NSS on Day 7 (mean + SD)” value [3, 8] of the same compound?
**A.** 8 ± 1

**Q.** And the “percentage change of Modified NSS on Day 2 vs the control group” value [3, 8]?
**A.** [−21%; **]

**Q.** And the “percentage change of Modified NSS on Day 7 vs the control group” value [3, 8]?
**A.** [−38%; ***]

**Q.** What about the “modified neurological severity score (NSS) compared with the control group on Day 2” value [3, 9] of the same compound?
**A.** did not show a statistically significant decrease

**Q.** What about the “modified neurological severity score (NSS) compared with the control group on Day 7” value [3, 9] of the same compound?
**A.** did not show a statistically significant decrease

**Q.** And the “hemispheric swelling at 24 h and 48-h mortality” value [4]?
**A.** significantly reduced

**Q.** With `C[C@]12CCC(=O)C=C1C=C[C@@H]1[C@@H]2CC[C@@]2(C)[C@H]1CC[C@@]2(O)CCC(=O)[O-].[K+]` [POTASSIUM CANRENOATE, potassium 3-[(8R,9S,10R,13S,14S,17R)-17-hydroxy-10,13-dimethyl-3-oxo-2,8,9,11,12,14,15,16 octahydro-1H-cyclopenta[a]phenanthren-17-yl]propanoate] as the compound, how does the “Relative brain infarct volume on Day 7 (%) (mean + SD)” value [1, 10] read?
**A.** 15 ± 6%

**Q.** And the “percentage change of relative brain infarct volume on Day 7 vs the control group” value [1, 10]?
**A.** [−64%; ***]

**Q.** What about the “Relative brain infarct volume on Day 7 (%) (mean + SD)” value [1, 11] of the same compound?
**A.** 28 ± 11%

**Q.** What about the “percentage change of relative brain infarct volume on Day 7 vs the control group” value [1, 11] of the same compound?
**A.** [−33%; **]

**Q.** And the “Relative brain infarct volume on Day 7 (%) (mean + SD)” value [1, 12]?
**A.** 12 ± 3%

**Q.** What about the “percentage change of relative brain infarct volume on Day 7 vs the control group” value [1, 12] of the same compound?
**A.** [−71%; ***]

**Q.** What about the “efficacy when administered as monotherapies” value [1] of the same compound?
**A.** ineffective

**Q.** And the “Modified NSS on Day 2 (mean + SD)” value [3, 10]?
**A.** 12 ± 3

**Q.** And the “Modified NSS on Day 7 (mean + SD)” value [3, 10]?
**A.** 8 ± 1

**Q.** And the “percentage change of Modified NSS on Day 2 vs the control group” value [3, 10]?
**A.** [−14%; *]

**Q.** And the “percentage change of Modified NSS on Day 7 vs the control group” value [3, 10]?
**A.** [−38%; ***]

**Q.** And the “Modified NSS on Day 2 (mean + SD)” value [3, 11]?
**A.** 11 ± 2

**Q.** And the “Modified NSS on Day 7 (mean + SD)” value [3, 11]?
**A.** 10 ± 2

**Q.** What about the “percentage change of Modified NSS on Day 2 vs the control group” value [3, 11] of the same compound?
**A.** [−21%; *]

**Q.** And the “percentage change of Modified NSS on Day 7 vs the control group” value [3, 11]?
**A.** [−23%; *]

**Q.** And the “Modified NSS on Day 2 (mean + SD)” value [3, 12]?
**A.** 10 ± 1

**Q.** What about the “Modified NSS on Day 7 (mean + SD)” value [3, 12] of the same compound?
**A.** 8 ± 1

**Q.** And the “percentage change of Modified NSS on Day 2 vs the control group” value [3, 12]?
**A.** [−29%; **]

**Q.** What about the “percentage change of Modified NSS on Day 7 vs the control group” value [3, 12] of the same compound?
**A.** [−38%; ***]

**Q.** What about the “modified neurological severity score (NSS) compared with the control group on Day 2” value [3, 9] of the same compound?
**A.** did not show a statistically significant decrease

**Q.** And the “modified neurological severity score (NSS) compared with the control group on Day 7” value [3, 9]?
**A.** did not show a statistically significant decrease
